Experimental data from patent publication US20240400515A1, “NPM1-DEPENDING LEUKEMIA AGENTS” (UNIVERSIDAD COMPLUTENSE DE MADRID, priority 2021, published 2024).

Key:
[1] = test system: MOLM13 (NPM1 C−); experiment: Viability assay (WST-1) in MOLM13 cell line; type: cell-based; details: Homo sapiens, MOLM-13, viability percentage relative to vehicle, 24 h
Experimental: (§1) Two different acute myeloid leukemia cell lines, OCI-AML3 (NPM1 C+) and MOLM13 (NPM1 C−) were obtained from the DSMZ cell repository (Braunschweig, Germany). Cell lines were expanded and cryogenically frozen upon acquisition to establish stocks in liquid nitrogen until use. Cultured cells were maintained at 37° C. in a humidified incubator in an atmosphere of 5% CO2 and passaged every 2-3 days. RPMI media (Gibco/Life Technologies; Grand Island, NY) supplemented with 10% fetal bovine serum (FBS) (Hyclone) and 1% penicillin/streptomycin was used.
(§2) The sensitivity of the compounds on OCI-AML3 (NPM1 C+) and MOLM13 (NPM1 C−) cell viability was assessed as an in-vitro acute myeloid leukemia (AML) model. Briefly, cells were seeded at a density of 2×10^4 cells/100 μL/well in 96-well plates. Cell lines were treated for 24 h with the test compound diluted in DMSO at the concentration of 5 μM or vehicle (DMSO). Then, 10 μL of WST-1 solution ((2-(4-iodophenyl)-3-(4-nitrophenyl)-5-(2,4-disulfophenyl)-2H-tetrazolium monosodium salt, Merck) were added and the cells were incubated for 4 h at 37° C. The absorbance was measured at 450 nm using an Asys UVM 340 microplate reader (Biochrom Ltd., Cambridge, UK). The background absorbance of blank wells containing only medium was subtracted from each test well. The data were reported as viability percentage relative to vehicle, obtained from two or three independent experiments performed in triplicate (Table 1).

[2] = test system: OCI-AML3 (NPM1 C+); experiment: Viability assay (WST-1) in OCI-AML3 cell line; type: cell-based; details: Homo sapiens, OCI-AML-3, viability percentage relative to vehicle, 24 h
Experimental: as §1, §2

N[C@@H]1[C@@H](c2ccc(C(F)(F)F)cc2)Cc2[nH]c3ccccc3c2[C@H]1CCNCC1CC1 [Ie, (2R,3R,4R)-4-{2-[(Cyclopropylmethyl)amino]ethyl}-2-[4-(trifluoromethyl)phenyl]-2,3,4,9-tetrahydro-1H-carbazol-3-amine]
viability at 5 µM [1]: 13 ± 3%
viability at 5 µM [2]: 14 ± 5%

N[C@@H]1[C@@H](c2ccc(OC(F)(F)F)cc2)Cc2[nH]c3ccccc3c2[C@H]1CCNCC1CC1 [If, (2R,3R,4R)-4-{2-[(Cyclopropylmethyl)amino]ethyl}-2-[4-(trifluoromethoxy)phenyl]-2,3,4,9-tetrahydro-1H-carbazol-3-amine]
viability at 5 µM [1]: 12 ± 3%
viability at 5 µM [2]: 11 ± 4%

N[C@@H]1[C@@H](c2cccc(Cl)c2)Cc2[nH]c3ccccc3c2[C@H]1CCNCC1CC1 [Ih, (2R,3R,4R)-2-(3-Chlorophenyl)-4-{2-[(cyclopropylmethyl)amino]ethyl}-2,3,4,9-tetrahydro-1H-carbazol-3-amine]
viability at 5 µM [1]: 28 ± 10%
viability at 5 µM [2]: 25 ± 7%

N[C@@H]1[C@@H](c2ccc(Cl)cc2)Cc2[nH]c3ccccc3c2[C@H]1CCNCC1CC1 [Ii, (2R,3R,4R)-2-(4-Chlorophenyl)-4-{2-[(cyclopropylmethyl)amino]ethyl}-2,3,4,9-tetrahydro-1H-carbazol-3-amine]
viability at 5 µM [1]: 13 ± 1%
viability at 5 µM [2]: 13 ± 4%

COc1ccccc1[C@H]1Cc2[nH]c3ccccc3c2[C@@H](CCNCC2CC2)[C@@H]1N [Ik, (2R,3S,4R)-4-{2-[(Cyclopropylmethyl)amino]ethyl}-2-(2-methoxyphenyl)-2,3,4,9-tetrahydro-1H-carbazol-3-amine]
viability at 5 µM [1]: 30 ± 2%
viability at 5 µM [2]: 23 ± 3%

Cc1cccc([C@H]2Cc3[nH]c4ccccc4c3[C@@H](CCNCC3CC3)[C@@H]2N)c1 [Il, (2R,3R,4R)-4-{2-[(Cyclopropylmethyl)amino]ethyl}-2-(3-methylphenyl)-2,3,4,9-tetrahydro-1H-carbazol-3-amine]
viability at 5 µM [1]: 32 ± 4%
viability at 5 µM [2]: 19 ± 7%

Cc1ccccc1[C@H]1Cc2[nH]c3ccccc3c2[C@@H](CCNCC2CC2)[C@@H]1N [Im, (2R,3R,4R)-4-{2-[(Cyclopropylmethyl)amino]ethyl}-2-(2-methylphenyl)-2,3,4,9-tetrahydro-1H-carbazol-3-amine]
viability at 5 µM [1]: 61 ± 7%
viability at 5 µM [2]: 36 ± 8%

N[C@@H]1[C@@H](c2ccccc2Cl)Cc2[nH]c3ccccc3c2[C@H]1CCNCC1CC1 [In, (2R,3S,4R)-2-(2-Chlorophenyl)-4-{2-[(cyclopropylmethyl)amino]ethyl}-2,3,4,9-tetrahydro-1H-carbazol-3-amine]
viability at 5 µM [1]: 28 ± 4%
viability at 5 µM [2]: 29 ± 1%

N[C@@H]1[C@@H](c2ccc(F)cc2)Cc2[nH]c3ccccc3c2[C@H]1CCNCC1CC1 [Io, (2R,3R,4R)-4-{2-[(Cyclopropylmethyl)amino]ethyl}-2-(4-fluorophenyl)-2,3,4,9-tetrahydro-1H-carbazol-3-amine]
viability at 5 µM [1]: 13 ± 5%
viability at 5 µM [2]: 16 ± 1%

N[C@H]1[C@H](c2ccc(F)cc2)Cc2[nH]c3ccccc3c2[C@@H]1CCNCC1CC1 [Ip, (2S,3S,4S)-4-{2-[(Cyclopropylmethyl)amino]ethyl}-2-(4-fluorophenyl)-2,3,4,9-tetrahydro-1H-carbazol-3-amine]
viability at 5 µM [1]: 7 ± 2%
viability at 5 µM [2]: 7 ± 3%

N[C@@H]1[C@@H](c2cccc(F)c2)Cc2[nH]c3ccccc3c2[C@H]1CCNCC1CC1 [Iq, (2R,3R,4R)-4-{2-[(Cyclopropylmethyl)amino]ethyl}-2-(3-fluorophenyl)-2,3,4,9-tetrahydro-1H-carbazol-3-amine]
viability at 5 µM [1]: 34 ± 4%
viability at 5 µM [2]: 18 ± 6%

CN[C@@H]1[C@@H](c2ccc(OC)cc2)Cc2[nH]c3ccccc3c2[C@H]1CCNCC1CC1 [Ir, (2R,3R,4R)-4-{2-[(Cyclopropylmethyl)amino]ethyl}-2-(4-methoxyphenyl)-N-methyl-2,3,4,9-tetrahydro-1H-carbazol-3-amine]
viability at 5 µM [1]: 15%
viability at 5 µM [2]: 11 ± 3%

CN[C@H]1[C@H](c2ccc(OC)cc2)Cc2[nH]c3ccccc3c2[C@@H]1CCNCC1CC1 [Is, (2S,3S,4S)-4-{2-[(Cyclopropylmethyl)amino]ethyl}-2-(4-methoxyphenyl)-N-methyl-2,3,4,9-tetrahydro-1H-carbazol-3-amine]
viability at 5 µM [1]: 6 ± 1%
viability at 5 µM [2]: 1%

Cc1ccc([C@H]2Cc3[nH]c4ccccc4c3[C@@H](CCNCC3CC(F)(F)C3)[C@@H]2N)cc1 [Iu, (2R,3R,4R)-4-(2-{[(3,3-Difluorocyclobutyl)methyl]amino}ethyl)-2-(4-methylphenyl)-2,3,4,9-tetrahydro-1H-carbazol-3-amine]
viability at 5 µM [1]: 6 ± 1%
viability at 5 µM [2]: 4 ± 3%

CNCC[C@@H]1c2c([nH]c3ccccc23)C[C@H](c2ccc(OC)cc2)[C@H]1N [Iw, (2R,3R,4R)-2-(4-Methoxyphenyl)-4-[2-(methylamino)ethyl]-2,3,4,9-tetrahydro-1H-carbazol-3-amine]
viability at 5 µM [1]: 40 ± 15%
viability at 5 µM [2]: 27 ± 2%

Cc1ccc([C@H]2Cc3[nH]c4ccccc4c3[C@@H](CCNCC(C)C)[C@@H]2N)cc1 [Ix, (2R,3R,4R)-2-(4-Methylphenyl)-4-{2-[(2-methylpropyl)amino]ethyl}-2,3,4,9-tetrahydro-1H-carbazol-3-amine]
viability at 5 µM [1]: 0%
viability at 5 µM [2]: 0%

Cc1ccc([C@H]2Cc3[nH]c4ccccc4c3[C@@H](CCNC(C)C)[C@@H]2N)cc1 [Iy, (2R,3R,4R)-2-(4-Methylphenyl)-4-{2-[(propan-2-yl)amino]ethyl}-2,3,4,9-tetrahydro-1H-carbazol-3-amine]
viability at 5 µM [1]: 4 ± 4%
viability at 5 µM [2]: 8%

CCNCC[C@@H]1c2c([nH]c3ccccc23)C[C@H](c2ccc(C)cc2)[C@H]1N [Iz, (2R,3R,4R)-4-[2-(Ethylamino)ethyl]-2-(4-methylphenyl)-2,3,4,9-tetrahydro-1H-carbazol-3-amine]
viability at 5 µM [1]: 8 ± 3%
viability at 5 µM [2]: 8 ± 4%
